Measured values published in patent US4939171A, “Sebosuppressive topical preparations” (Henkel Kommanditgesellschaft auf Aktien, priority 1987, dated 1990).

Columns and labels:
sebum [1] = assay: Testing and evaluation of the antiseborrhoeic effect: percentage sebum reduction from browning of the backs of male rats; format: in vivo; details: Rattus norvegicus, 336 h, topical, male Wistar rats, 9 applications in 2 weeks; for inhibition in vivo at 0.01 % strength: Concentration 0.01 % by weight; for inhibition in vivo at 0.05 % strength: Concentration 0.05 % by weight; for inhibition in vivo at 0.5 % strength: Concentration 0.5 % by weight; for inhibition in vivo at 0.02 % strength: Concentration 0.02 % by weight; for inhibition in vivo at 0.001 % strength: Concentration 0.001 % by weight; for inhibition in vivo at 0.005 % strength: Concentration 0.005 % by weight; for inhibition in vivo at 0.1 % strength: Concentration 0.1 % by weight
Text: The test is based on the observation that male rats secrete a brownish sebum so that the degree of greasiness of the skin may readily be visually assessed as browning of the skin. […] At the same time, only very small quantities of lipids can be extracted from the hair cut off; cf. J Soc. Cosmet. Chem. 34, 127-135 (1983)).
Male Wistar rats having a body mass of 220 to 230 grams at the beginning of the test were used as the test animals. The test substances, dissolved in a mixtures of equal volumes of ethanol and acetone, were brushed onto half of the back of each of 6 rats for each substance and concentration tested. The other half of the back of each tested rat was treated with the solvent only. One application was made on each tested rat on each of Monday through Friday of one week and on each of Monday through Thursday in the next week; the rats were then evaluated on Friday of the second week. For evaluation, the rats were shaved on their backs and flanks and visually assessed independently by a panel of examiners (6 people) under double-blind conditions. The degree of browning on the backs of the rats was visually assessed as a measure of the sebum coating. A group of six rats of the same type treated on both sides with the solvent only was used for control.
The intensities of the brown color on each control rat, and on the side of each other tested rat that had been treated with a solution containing a substance to be tested for its sebosuppressive ability, were scored according to the following scale:
The sum of the scores for the six treated rats in each group was divided by the sum of the scores for the six control rats for that group, this quotient was multiplied by 100, and that result subtracted from 100, to give the percentage sebum reduction as recorded in the tables below.

sebum [2] = details: male rats systematically treated; cited from earlier work

Row | SMILES | inhibition in vivo at 0.01 % strength (sebum [1]) | inhibition in vivo at 0.05 % strength (sebum [1]) | further results
1 | COC(=O)c1ccc(OC(C)CCC2C(C)CCCC2(C)C)cc1 (stereo not shown) [Example 1.1, 4-[4-(1,1,3-trimethyl-2-cyclohexyl)-2-butoxy]-benzoic acid methyl ester] | 25% | 99% | 
2 | COC(=O)C=Cc1ccc(OCC2CCCCC2)cc1 [Example 1.2, 4-cyclohexylmethoxycinnamic acid methyl ester] |  |  | inhibition in vivo at 0.5 % strength (sebum [1]): 29%
3 | COC(=O)c1ccc(OCCCC2CCCCC2)cc1 [Example 1.3, 4-(3-cyclohexylpropyloxy)-benzoic acid methyl ester] |  | 68% | inhibition in vivo at 0.02 % strength (sebum [1]): 0%; inhibition in vivo at 0.5 % strength (sebum [1]): 99%
4 | CC(CCC1C(C)CCCC1(C)C)Oc1ccc(C(=O)O)cc1 (stereo not shown) [Example 1.4, 4-(4-(1,3,3-trimethyl-2-cyclohexyl)-2-butoxy)-benzoic acid] | 93% | 100% | inhibition in vivo at 0.001 % strength (sebum [1]): 73%; inhibition in vivo at 0.005 % strength (sebum [1]): 88%
5 | O=C(O)C=Cc1ccc(OCC2CCCCC2)cc1 [Example 1.5, 4-(cyclohexylmethoxy)-cinnamic acid] |  |  | inhibition in vivo at 0.5 % strength (sebum [1]): 15%
6 | O=C(O)c1ccc(OCCCC2CCCCC2)cc1 [Example 1.6, 4-(3-cyclohexylpropyloxy)-benzoic acid] | 52% |  | inhibition in vivo at 0.005 % strength (sebum [1]): 0%; inhibition in vivo at 0.02 % strength (sebum [1]): 84%
7 | OCC=Cc1ccc(OCC2CCCCC2)cc1 [Example 1.7, 4-cyclohexylmethoxycinnamic alcohol] |  |  | inhibition in vivo at 0.1 % strength (sebum [1]): 53%; inhibition in vivo at 0.5 % strength (sebum [1]): 66%
8 | COC(=O)c1ccc(OCC=C(C)CCC=C(C)CCC=C(C)C)cc1 [Example 1.8, 4-farnesyloxybenzoic acid methyl ester] | 38% | 86% | 
9 | COC(=O)c1ccc(OC/C=C(\C)CCC=C(C)C)cc1 [Example 1.9, 4-geranyloxybenzoic acid methyl ester] |  |  | inhibition in vivo at 0.1 % strength (sebum [1]): 40%
10 | COC(=O)CCc1ccc(OCC=C(C)CCC=C(C)CCC=C(C)C)cc1 [Example 1.11, 3-(4-farnesyloxyphenyl)-propionic acid methyl ester] |  | 86% | 
11 | COC(=O)C=Cc1ccc(OCC=C(C)CCC=C(C)CCC=C(C)C)cc1 [Example 1.12, 4-farnesyloxycinnamic acid methyl ester] |  | 85% | 
12 | CC(C)=CCCC(C)=CCCC(C)=CCOc1ccc(CCC(=O)O)cc1 [Example 1.13, 3-(4-farnesyloxyphenyl)-propionic acid] |  | 68% | 
13 | CC(C)=CCCC(C)=CCCC(C)=CCOc1ccc(C=CC(=O)O)cc1 [Example 1.14, 4-farnesyloxycinnamic acid] |  | 73% | 
14 | C/C(=C\COc1ccc(C(=O)O)cc1)CCC[C@H](C)CCC[C@H](C)CCCC(C)C [Example 1.15, 4-phytyloxybenzoic acid] |  | 35% | 
15 | CC(C)=CCCC(C)=CCCC(C)=CCOc1ccc(C(=O)O)cc1 [Example 1.16, 4-farnesyloxybenzoic acid] | 69% |  | 
16 | CC(C)=CCCC(C)=CCCC(C)=CCOc1ccc(CO)cc1 [Example 1.17, 4-farnesyloxybenzyl alcohol] | 87% | 86% | inhibition in vivo at 0.001 % strength (sebum [1]): 14%; inhibition in vivo at 0.002 % strength (sebum [1]; Concentration 0.002 % by weight): 18%; inhibition in vivo at 0.005 % strength (sebum [1]): 72%
17 | CC#C[C@]1(O)CC[C@H]2[C@@H]3CCc4cc(O)ccc4[C@H]3CC[C@@]21C [estrogen] |  |  | skin colour after shearing (browning by sebum) (sebum [2]): only show the normal light, pink-colored skin after shearing
